Assay results as given in patent US20150125893A1, “TRANSPORTER BIOSENSORS” (Carnegie Institute of Washington, priority 2013, published 2015).

Legend:
OzTrac-MSL10 = OzTrac-MSL10 FRET osmosensor expressed in yeast cells, response to osmolytes; type: cell-based, Arabidopsis thaliana; conditions: for FRET emission ratio: addition of 1M osmolyte; for FRET emission ratio / FRET response to osmolyte: yeast cells; for FRET response to osmolyte: hyper-osmotic stress, NaCl at 1M
From the text: Fusion proteins comprising the mechanisensitive channel small conductance-like 10 (AtMSL10) were constructed, potentially creating an osmosensor. […] This t9AFP-AtMSL10-t7TFPt9 protein is named as OzTrac-MSL10. […] Upon treatment of 1 M NaCl, which induces hyper-osmotic stress, AtMSL10 will undergo a conformational change into the closed state which causes the FRET pairs to come closer, resulting in a higher FRET.
The OzTrac-MSL10 FRET sensor can detect a range of osmolarity concentration changes. […] The calculation of the dissociation constant is around 0.5 M for NaCl and KCl, and around 1M for […] and […].

[1] = system: pDRFlip302 (NRT1.1 with AFPt9 and mCerulean)
From the text: (§1) All transporter and sensor constructs were inserted in the yeast expression vector pDRFlip30, 34, 35, 39, 42-GW. The details of the vectors are as follows: pDRFlip30 using pair of N-terminal fluorescent protein Aphordite t9 (AFPt9), 9 amino acids truncated of C-term of AFP, and C-terminal fluorescent protein monomeric Cerulean (mCer); pDRFlip 39 using pair of N-terminally fused fluorescent protein enhanced dimer Aphrodite t9 (edAFPt9) and C-terminal fluorescent protein enhanced dimer, 7 amino acids and 9 amino acids truncated of N-term and C-term of eCyan (t7.ed.eCFPt9), respectively; pDRFlip 42 using pair of N-terminal fluorescent protein Citrine and C-terminal fluorescent protein mCer; pDRFlip 34 using pair of N-terminal fluorescent protein AFPt9 and C-terminal fluorescent protein t7.Teal.t9 (t7.TFP.t9), and pDRFlip 35 using pair of N-terminal fluorescent protein AFPt9 and C-terminal fluorescent protein mTFPt9. All vectors contained […] replication origin, GATEWAY™ cassette-attR1-CmR-ccdB gene-attR2 sequence, which is between the pair of fluorescent proteins, a PMA1 promoter fragment, an ADH terminator, different pairs of fluorescent proteins, and the URA cassette for selection in yeast. The full length ORF of NRT1.1 and different mutants of NRT1.1, such as T101A, T101D, P492L from Arabidopsis (At1g12110) in TOPO GATEWAY™ entry vector were used to prepare the nitrate sensors of the present invention. The yeast vector harboring the constructs was then created by the GATEWAY™ LR reaction between different forms of pTOPO-NRT and different pDRFlip-GWs, following manufacturer's instructions..
(§2) Yeast strains used in this study were BJ5465 [MATa, ura3-52, trp1, leu2Δ1, his3Δ200, pep4::HIS3, prb1Δ1.6R, cant GAL+] obtained from Yeast Genetic Stock Center (University of California, Berkeley, Calif.). Yeast was transformed using the lithium acetate method and selected on solid YNB (minimal yeast medium without nitrogen; Difco) supplemented with 2% glucose and -Ura DropOut (Clontech).

[2] = system: CHL1 nitrate transporter (Aphrodite-t9 N-terminus, Teal-t9 C-terminus)
From the text: as §1, §2

[3] = system: CHL1 nitrate transporter (AFPt9 in central loop, Teal-t9 in loop between helices 10 and 11)
From the text: as §1, §2

[4] = system: NRT1.1 T101A mutant fusion protein; assay: Nitrate sensor fluorescence response in yeast, NRT1.1 T101A low affinity mutant fusion protein; type: cell-based, Arabidopsis thaliana
Protocol: Yeast strains used in this study were BJ5465 [MATa, ura3-52, trp1, leu2Δ1, his3Δ200, pep4::HIS3, prb1Δ1.6R, cant GAL+] obtained from Yeast Genetic Stock Center (University of California, Berkeley, Calif.). Yeast was transformed using the lithium acetate method and selected on solid YNB (minimal yeast medium without nitrogen; Difco) supplemented with 2% glucose and -Ura DropOut (Clontech). Single colonies were grown in 5 mL liquid YNB supplemented with 2% glucose and -Ura DropOut under agitation (220 rpm) at 30° C. until OD600 nm˜0.8 was reached. The liquid cultures were subcultured by diluted to OD600 nm 0.01 in the same liquid medium and conditions at 30° C. until OD600 nm 0.2 was reached. […] Fluorescence was measured by a fluorescence plate reader (M1000, TECAN), in bottom reading mode using a 7.5 nm bandwidth for both excitation and emission. To measure fluorescence response to substrate addition, 100 μL of substrate (dissolved in MES buffer as 500% stock solution) were added to 100 μL of cells in a 96-well plate (Greiner). Fluorescence from cultures harboring yeast expression vectors pDRFlip30, 39, and 42 was measured as emission at λem=470-570 nm using excitation at λexc=428 nm and fluorescence using yeast expression vector pDRFlip34 and 35 was measured as emission at λem=470-570 nm using excitation at λexc=440 nm.

| Compound | FRET emission ratio (OzTrac-MSL10) | FRET response to osmolyte (OzTrac-MSL10) | further results |
| --- | --- | --- | --- |
| [Cl-].[K+] [KCl, potassium chloride] | higher FRET emission ratio | increased the FRET | – |
| OCC(O)CO [glycerol] | higher FRET emission ratio | increased the FRET | – |
| O=[N+]([O-])O [nitrate] | – | – | change in FRET on addition of nitrate [1]: does not induce a change in FRET; change in FRET on addition of nitrate [2]: does not induce a change in FRET; change in FRET on addition of nitrate [3]: does not induce a change in FRET |
| OC[C@@H](O)[C@@H](O)[C@H](O)[C@@H](O)CO [sorbitol] | higher FRET emission ratio | increased the FRET | – |
| O=[N+]([O-])[O-].[K+] [KNO3] | – | – | sensor response ([4]; high levels of KNO3): only responds to addition of high levels; sensor response ([4]; low levels of KNO3): does not respond |
| [Cl-].[Na+] [NaCl, sodium chloride] | higher FRET emission ratio | dramatic FRET change | emission spectrum change (OzTrac-MSL10; 1M NaCl, excitation at 440 nm): decrease in fluorescence intensity of donor and increase of acceptor; FRET change with serial concentrations (OzTrac-MSL10; serial NaCl concentrations (mM), excitation at 440 nm): concentration-dependent FRET changes |
